Consider 4 compounds from patent publication US11351124B2, “Sustained release of formulations of local anesthetics” (EUPRAXIA PHARMACEUTICALS INC., priority 2015, dated 2022).

Data set [1] is described as follows: Dissolution of ropivacaine crystals in suspension, USP I apparatus. The class given is physicochemical. As to the method: Prior to assessing intrinsic dissolution of ropivacaine, the kinetics of dissolution of crystals in suspension was assessed using a USP I apparatus with either large (1 L capacity, filled to 500 mL) or small (150 mL) dissolution baths. The stir speed was 50 rpm in the large vessel method and 100 rpm in the small vessel method and temperature was 37° C. The media was PBS with 0.1% SDS. The commercial ropivacaine was dissolved rapidly with greater than 60% of the material dissolved within 30 minutes. A 17 mg sample dissolving in the large vessel reached a plateau within 4 hours, although only approximately 80% of the ropivacaine added to the experiment was accounted for.
Approximately 100-120% of the compound was accounted for in this assay. […] The Y-intercept values of the regression is representative of the magnitude of the “burst”, which was 25× higher for the commercial sample compared to the recrystallized sample. See also FIG. 1A.

For data set [2], the system named is postsurgical pain. The following applies: in vivo; cited from earlier work.
Data set [3] is described as follows: Solubility of ropivacaine in various aqueous media. The data set is classed as physicochemical. As to the method:
As used herein, the aminoamide local anesthetic agents are typically in the free base form, which have lower solubility in an aqueous medium than their salt form (e.g., HCl salt). The low solubility (e.g., less than 1 mg/ml) enables a rapid formation of a saturated solution within the PVA coating or shell.

A short description of data set [4]: Franz cell diffusion of ropivacaine through PVA membranes. The class given is physicochemical. The following applies: for Fold Decrease in D: relative to buffer with no membrane. As to the method: The diffusion behavior of the encapsulated drug in vivo can be predicted based on diffusion coefficient measured in a Franz cell diffusion system. In particular, diffusion coefficient (D) can be quantified according to Equation 1: [formula] where: • D: Diffusion coefficient (cm^2/s) • L: membrane thickness (cm) • J: flux: (μg×cm^−2×s^−1)=slope (μg/mL/h)×volume (9.8 mL)[…](3600 s/h×A cm^2) • A: surface area of the Franz cell (0.650 cm^2) • ΔC: concentration gradient of ropivacaine (μg/mL or μg/cm^3)=339.98 μg/mL (measured […] fluid concentration)−0 μg/mL (assumed […] concentration) The diffusion of ropivacaine through PVA membranes was measured using a Franz diffusion cell system. The system includes a top donor chamber containing a donor fluid, which is sealed with parafilm during the experiment; and a bottom receptor chamber containing a receptor fluid (9.8 mL of PBS pH 7.3). The donor fluid was prepared in a single batch for use in all diffusion experiments, and consisted of PBS pH 7.3. It was prepared by stirring excess solid ropivacaine in the media for 3 days, and filtering to remove the solids with a 0.22 μm filter. The assayed content was 339.98 μg/m L. The rate of appearance of ropivacaine in the Franz cell receptor fluid (the slope of the concentration versus time plot of the data multiplied by the receptor cell volume, 9.8 mL), and the measured membrane thickness (after hydration), were used to calculate the ropivacaine diffusion coefficient through the membrane, using the formula for Fick's law (Equation 1). The concentration of ropivacaine in the receptor (bottom) chamber was measured at different time points, and the diffusion coefficient was determined from Fick's first law of diffusion. Measured concentrations were converted to total drug transport (μg) by multiplying by the receptor fluid volume (9.8 mL for all experiments). FIGS. 3-5 show the diffusion rate for the first 5 hours for three PVA membranes at various degrees of crosslinking induced by various amounts of citric acid.

Data set [5] is described as follows: Intrinsic dissolution of ropivacaine, uncoated vs coated with PVA membrane (FIG. 2). The data set is classed as physicochemical. Conditions: PVA membrane Mn=20-200 kDa, 87% hydrolyzed, 12% citric acid, cured at 125° C. for 6 hours.
The mark [6] stands for this setting: USP I, PBS with 0.1% SDS, 37° C.
Setting [7] is: PVA membrane 87% hydrolysis, Mn 20-220 kDa, 4% citric acid, 125 °C 6 h.
The mark [8] stands for this setting: PVA membrane 87% hydrolysis, Mn 20-220 kDa, 8% citric acid, 125 °C 6 h.
Setting [9] is: PVA membrane 87% hydrolysis, Mn 20-220 kDa, 12% citric acid, 125 °C 6 h.
[10] abbreviates: PVA membrane 87% hydrolysis, Mn 20-220 kDa, 20% citric acid, 125 °C 6 h.
[11] abbreviates: PVA membrane 87% hydrolysis, Mn 20-220 kDa, 30% citric acid, 125 °C 6 h.
[12] abbreviates: PVA membrane 87% hydrolysis, Mn 146-186 kDa, 4% citric acid, 125 °C 6 h.
[13] abbreviates: PVA membrane 87% hydrolysis, Mn 146-186 kDa, 8% citric acid, 125 °C 6 h.
The mark [14] stands for this setting: PVA membrane 87% hydrolysis, Mn 146-186 kDa, 12% citric acid, 125 °C 6 h.
Where [15] appears, read: PVA membrane >99% hydrolysis, Mn 90 kDa, 8% citric acid, 125 °C 6 h.
Setting [16] is: PVA membrane >99% hydrolysis, Mn 90 kDa, 12% citric acid, 125 °C 6 h.
[17] abbreviates: PVA membrane >99% hydrolysis, Mn 90 kDa, 20% citric acid, 125 °C 6 h.
Setting [18] is: PVA membrane >99% hydrolysis, Mn 146-186 kDa, 0% citric acid, 125 °C 6 h.
[19] abbreviates: PVA membrane >99% hydrolysis, Mn 146-186 kDa, 0% citric acid, 129 °C 3 h.
Where [20] appears, read: PVA membrane >99% hydrolysis, Mn 146-186 kDa, 0% citric acid, 140 °C 6 h.
Setting [21] is: PVA membrane >99% hydrolysis, Mn 146-186 kDa, 4% citric acid, 125 °C 6 h.
The mark [22] stands for this setting: PVA membrane >99% hydrolysis, Mn 146-186 kDa, 4% citric acid, 140 °C 6 h.
Setting [23] is: PVA membrane >99% hydrolysis, Mn 146-186 kDa, 8% citric acid, 125 °C 6 h.
[24] abbreviates: PVA membrane >99% hydrolysis, Mn 146-186 kDa, 12% citric acid, 125 °C 6 h.

In brackets after ≈: the same amount, converted by molar mass. Several values for one entry are separate records, joined by “and”; a condition that tells them apart may be missing. Equal values may be shown once.

In the case of `CCCN1CCCC[C@H]1C(=O)Nc1c(C)cccc1C` [commercial ropivacaine, ropivacaine], the “Time to reach dissolution plateau” value in data set [1] (17 mg sample, large vessel (500 mL, 50 rpm), PBS with 0.1% SDS, 37° C.) is at most 4 h. In addition, in data set [1] (17 mg sample, large vessel, at plateau), the “Ropivacaine added to the experiment accounted for” value was “approximately 80%”. In data set [1] (setting [6]), the “Material dissolved within 30 minutes” value was “greater than 60%”. The “Magnitude of the burst (Y-intercept of regression), compared to the recrystallized sample” value in data set [1] (small vessel apparatus, burst phase within first 30 minutes) stood at 25 ×.

As to `CCCN1CCCC[C@H]1C(=O)Nc1c(C)cccc1C` [recrystallized ropivacaine, ropivacaine], in data set [1] (FIG. 1A), the “Rate of dissolution slowed as compared to commercial ropivacaine” value is recorded as “about 10 times”. In addition, in data set [1] (setting [6]), the “Compound accounted for in this assay” value is listed as 100-120% and the “Material dissolved over the first 6 hours (gradual dissolution)” value worked out at 60%.

Turning to `CCCCN1CCCCC1C(=O)Nc1c(C)cccc1C` (centres unmarked) [conventional bupivacaine, bupivacaine], in data set [2], the Duration of action is at most 7 h.

Take `CCCN1CCCC[C@H]1C(=O)Nc1c(C)cccc1C` [ropivacaine]: the solubility (commonly the concentration that dissolves in the medium under given conditions) in data set [3] (PBS + 0.05% SDS, pH 7.4, aqueous with cosolvent or surfactant or cyclodextrin) was 254 ± 14 µg/mL; in data set [3] (PBS + 68 mg/mL BSA, pH 7.4, plasma or biological fluid) it was 792 ± 111 µg/mL; in data set [3] (PBS + 0.1% SDS, pH 7.4, aqueous with cosolvent or surfactant or cyclodextrin) it was 306 ± 18 µg/mL; in data set [3] (PBS + 0.2% SDS, pH 7.4, aqueous with cosolvent or surfactant or cyclodextrin), 350 ± 12 µg/mL; in data set [3] (aqueous buffer, PBS (pH 7.4)), 254 ± 13 µg/mL (≈ 926 µM). Moreover, the “Assayed content of saturated ropivacaine donor fluid” value in data set [4] (PBS pH 7.3, excess solid stirred 3 days, filtered 0.22 μm) is given as 339.98 μg/m L. Also, in data set [4] (PBS, no membrane, D defined in cm^2/s), the “Diffusion of ropivacaine in PBS (diffusion coefficient)” value is given as 4.97×10^−6. The “D, ropivacaine diffusion coefficient” value is 1.94E−07 cm^2/s and 2.23E−07 cm^2/s in data set [4] (setting [7]); 2.20E−07 cm^2/s and 3.01E−07 cm^2/s in data set [4] (setting [8]); 4.30E−07 cm^2/s and 5.43E−07 cm^2/s in data set [4] (setting [9]); 6.26E−07 cm^2/s and 3.64E−07 cm^2/s in data set [4] (setting [10]); 4.88E−07 cm^2/s and 2.82E−07 cm^2/s in data set [4] (setting [11]); 2.32E−07 cm^2/s and 2.64E−07 cm^2/s in data set [4] (setting [12]). The “D, ropivacaine diffusion coefficient” value in data set [4] (setting [13]) was 2.30E−07 cm^2/s and 2.93E−07 cm^2/s; in data set [4] (setting [14]) it was 3.85E−07 cm^2/s and 2.90E−07 cm^2/s; in data set [4] (setting [15]), 1.68E−07 cm^2/s and 1.99E−07 cm^2/s; in data set [4] (setting [16]) it was 3.59E−07 cm^2/s and 3.41E−07 cm^2/s; in data set [4] (setting [17]), 2.38E−07 cm^2/s and 2.01E−07 cm^2/s; in data set [4] (setting [18]) it was 9.09E−08 cm^2/s and 9.21E−08 cm^2/s. The “D, ropivacaine diffusion coefficient” value is 1.47E−07 cm^2/s in data set [4] (setting [19]); 1.33E−07 cm^2/s and 1.19E−07 cm^2/s in data set [4] (setting [20]); 2.40E−07 cm^2/s and 2.15E−07 cm^2/s in data set [4] (setting [21]); 1.97E−07 cm^2/s and 1.44E−07 cm^2/s in data set [4] (setting [22]); 2.02E−07 cm^2/s and 1.91E−07 cm^2/s in data set [4] (setting [23]); 2.41E−07 cm^2/s and 2.18E−07 cm^2/s in data set [4] (setting [24]). In data set [4] (PVA membranes 146-186 kDa, >99% hydrolysis, after thermal curing and physical crosslinking), the “Decrease in diffusion coefficient compared to diffusion of ropivacaine in PBS” value is reported as 50 times. The “Fold Decrease in D” value is 26 and 22 in data set [4] (setting [7]); 23 and 17 in data set [4] (setting [8]); 12 and 9 in data set [4] (setting [9]); 8 and 14 in data set [4] (setting [10]); 10 and 18 in data set [4] (setting [11]); 21 and 19 in data set [4] (setting [12]). Besides, the “Fold Decrease in D” value in data set [4] (setting [13]) was 22 and 17; in data set [4] (setting [14]), 13 and 17; in data set [4] (setting [15]), 30 and 25; in data set [4] (setting [16]), 14 and 15; in data set [4] (setting [17]), 21 and 25; in data set [4] (setting [18]) it was 55 and 54. Further, the “Fold Decrease in D” value was 34 in data set [4] (setting [19]); 37 and 42 in data set [4] (setting [20]); 21 and 23 in data set [4] (setting [21]); 25 and 34 in data set [4] (setting [22]); 25 and 26 in data set [4] (setting [23]); 21 and 23 in data set [4] (setting [24]). In addition, the “Intrinsic dissolution compared with ropivacaine coated with PVA membrane” value in data set [5] is “much more rapid”.
